This is an account of results in patent US7629318B2, “Immunosuppressant compounds, methods and uses related thereto” (priority 2002, dated 2009).

Where “and” joins values, the source holds several entries; their conditions need not be identical. Equal entries are not always repeated. Numbered stars: 1 amine (or outer) side, 2 acyl side, 3 side chain; on linkers, the order of the positions; unused ones are H or OH. Square brackets hold non-standard residues; d marks the D form. Peptide text beside a SMILES is read from it. X1 = CC(C)c1oc([C@H](CO)N[*:1])nc1C(=O)[*:2]; Pro(3R-Ph) = O=C(O)[C@H]1NCC[C@@H]1c1ccccc1; Tic = O=C(O)[C@@H]1Cc2ccccc2CN1; Cha = N[C@@H](CC1CCCCC1)C(=O)O

Data set [1] concerns the target T1, Priess (DR4Dw4: DRA1*0101 DRB1*0401) cells (Homo sapiens, UniProt P01903+P01911, A100K/A169T/F76Y/I96L/K127E/L162R/M171V/N62H/P40V/Q125Y/R42H/S133A/S149N/S66Y/V115G/V209L/W38E).
T1 construct: MHC II Proteins Expressed on PRIESS and LG2 Cells; endogenous in cells; host or cells: Priess cells
The data set is described as follows: Competitive binding to MHC II proteins expressed on Priess cells. The data set is classed as cell-based. The method, then:
(§1) For use in the binding assay the cells were re-suspended in medium containing 1% FCS at a density of 2.5×10^6 cells/ml.
(§2) The assay was performed in sterile 96 well polystyrene microtiter plates. A 10 fold dilution series of compounds (16 nM-1615 μM) in 1% FCS was prepared from 5 or 10 mM compound stock solutions in 10% DMSO/water. 50 μl of each compound dilution were added in duplicates to 50 μl of a 16 μM solution of indicator peptide in 1% FCS. Cell binding was initiated by adding 100 μl of 2.5×10^6 cells/ml 1% FCS to each well. Controls were included containing the DMSO concentration present in the solution with the highest compound concentration. The cells were incubated at 37° C., 6% CO2. After 4 hours the cells were washed with 200 μl PBS and lysed in 200 μl lysis buffer (50 mM sodium phosphate, 150 mM sodium chloride, 1% (w/v) NP-40, 25 mM iodoacetamide, 1 mM PMSF, 3.1% protease inhibitor cocktail: 0.32 g/l of Chymostatin, Antipain, Pepstatin A, Soybean trypsin inhibitor and Leupeptin each, pH 7.5) for 10 min.
(§3) After washing with PBS, 190 μl of cell lysate were transferred to the appropriate wells of the capture plate and incubated for 2 h at 4° C. The wells were washed six times with 200 μl/well cooled (4 to 8° C.) of 1×DELFIA wash (Wallac-ADL-GmbH, Freiburg), incubated with 100 μl of cooled Europium-streptavidin conjugate (Wallac-ADL-GmbH, Freiburg; diluted 1/1000 with DELFIA assay buffer) for 30 minutes at 4° C., again washed six times with cooled 1×DELFIA wash and, finally, incubated with 200 μl cooled DELFIA enhancement solution (Wallac-ADL-GmbH, Freiburg) for one hour at room temperature before reading the time-resolved europium fluorescence at λex Eu^3+: 340 nm and λem Eu^3+: 613 (615) nm (Wallac Victor^2 1420 Multilabel Counter, Wallac-ADL-GmbH, Freiburg).

Data set [2] concerns the target Cathepsin B1 (EC 3.4.22.1 from bovine spleen) (Bos taurus, UniProt P07688). The conditions noted are these: Cathepsin B, 4 h.
The target of data set [3] is T2, LG2 (DR1: DRA1*0101 DRB1*0101) cells (Homo sapiens, UniProt P01903+P01911, A100R/D57E/F55L/F60I/F76Y/I96L/L162R/M171V/P40L/Q125E/R42F/V115G/Y59C).
T2 construct: MHC II Proteins Expressed on PRIESS and LG2 Cells; endogenous in cells; host or cells: LG2 cells
The data set is described as follows: Competitive binding to MHC II proteins expressed on LG2 cells. The data set is classed as cell-based. The settings on record: Cell binding IC50 (uM) LG2 (0101), LG2 (0101). The method, then: as §1, §2, §3

Another data set addresses Cathepsin L (Homo sapiens, UniProt P07711).
The test system of data set [4] is T-cell proliferation, DR14-LN. The conditions noted are these: read-out: Immunsupressive assays DR14-LN (IC50).
Data set [5] deals with DR4Dw4 (DRA1*0101 DRB1*0401) (Homo sapiens, UniProt P01903+P01911, A100K/A169T/F76Y/I96L/K127E/L162R/M171V/N62H/P40V/Q125Y/R42H/S133A/S149N/S66Y/V115G/V209L/W38E). The data set can be described thus: Competitive binding to MHC-II protein DR4Dw4. In a few lines: (§4)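 Each MHC-II allele incubated with compound 16 hours at room temperature in duplicate; controls lacked compound, or both compound and MHC-II. Complexes captured 2 h at 4 °C, bound biotinylated peptide detected via europium-streptavidin and DELFIA enhancement, time-resolved fluorescence read at ex 340/em 613 (615) nm.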

Data set [6] concerns the target DR4Dw14 (DRA1*0101 DRB1*0404) (Homo sapiens, UniProt P01903+P01911, A100R/A169T/F76Y/I96L/K127E/L162R/M171V/N62H/P40V/Q125Y/R42H/S133A/S149N/S66Y/V209L/W38E). The data set can be described thus: Competitive binding to MHC-II protein DR4Dw14. The settings on record: 0404; read-out: Protein binding IC50 (nM) 0404. In a few lines: as §4
The subject of data set [7] is T-cell proliferation, lymph node cells of chimeric 0401-IE transgenic mice. The settings on record: read-out: Immunsupressive assays DR4-LN (IC50); DR4-LN. How it is done:
The compounds were tested as follows to inhibit the proliferative T cell response of antigen-primed lymph node cells from mice carrying a chimeric mouse-human class II transgene with an RA-associated peptide binding site, and lack murine class II molecules (Muller et al., 1990; Woods et al., 1994; Current Protocols in Immunology, Vol. 2, 7.21; Ito et al., 1996). Here, the immunization takes place in vivo, but the inhibition and readout are ex vivo. […] These mice lack murine MHC class II, and thus, all Th responses are channelled through a single human RA-associated MHC class II molecule (Ito et al. 1996). These transgenic mice represent a model for testing human class II antagonists.
1.5×10^5 cells are incubated in 0.2 ml wells of 96-well tissue culture plates in the presence of ovalbumin (30 μg per well—half-maximal stimulatory concentration) and a dilution series of the compound under test (from around 0.1 to 200 uM) in serum free HL-1 medium containing 2 mM L-glutamine and 0.1 g/l Kanamycin for three days. Antigen specific proliferation is measured by 3H-methyl-thymidine (1 μCi/well) incorporation during the last 16 h of culture (Falcioni et al., 1999). Cells are harvested, and 3H incorporation measured using a scintillation counter (TopCount, Wallac Finland).

The target in data set [8] is DR1 (DRA1*0101 DRB1*0101) (Homo sapiens, UniProt P01903+P01911, A100R/D57E/F55L/F60I/F76Y/I96L/L162R/M171V/P40L/Q125E/R42F/V115G/Y59C). The data set is described as follows: Competitive binding to MHC-II protein DR1. The settings on record: Protein binding IC50 (nM) 0101, 0101. In a few lines:
as §4

In data set [9] the test system is T cell activation from 0404(DR14) chimeric MHCII-mice. The data set is described as follows: In vivo inhibition of T cell activation by co-immunisation, DR14 mice immunised with OVA. More on the design: species or system mouse; % Reduction of response to PPD(OVA): concentration or dose not given beside the values. The source says:
(§5) Mouse strains DR4 and DR14 carry chimeric MHC-II transgenes that encode the N-terminal domains of the respective DR molecules (forming the peptide binding site) and the remaining (2nd extracellular domains, transmembrane and intracytoplasmic domains) of the murine class II molecule I Ed. These strains are deficient of other murine class II, and thus, all helper T cell responses are triggered by peptides presented in the respective human MHC-II binding site. As an initial in vivo test of subject inhibitors designed to bind to DR, DR-transgenic mice were co-immunized with a pre-defined dose of protein antigen and different amounts of the compound antagonist to be tested. In this set-up, both antigen and compound were emulsified together in complete Freund's adjuvant (CFA), and thus, a direct competition between the two components for presentation by DR was tested. Readout of the assay is ex vivo antigen-specific activation of T cells from regional lymph nodes explanted 9 days after co-immunization. In a typical experiment, antigen dose-response was investigated, and the curves from mice immunized with antigen were compared to those from mice co-immunized with antigen+compound. The dose response curves were generated using lymph node cells pooled at equal numbers from 2-3 mice per experimental group. The experimental system also permits assessment of inherent antigenicity of the compound antagonist. This was done by setting up a dose-response study from the same cell pool using different concentrations of the compund under investigation instead of the antigen. As a specificity control, the response to Purified Protein Derivative (PPD), the major protein component of CFA, was tested in the same cell pool.
(§6) All Gpg conataining compounds have significant immunosupressive properties in one or both of the in-vivo models. Gpg-containing compounds also show improved activity or improved specificity over the Arg-containing equivilent. Further, compounds according to Formula I show activity in this assay.
(§7) Compounds of the invention were injected as an Emulsion prepared using CFA (Bacto Adjuvant Complete H37 Ra, Difco, Order-No. 3113-60); proteins 10 mg/ml in PBS, inhibitors 5 μM in 10% DMSO. CFA, PBS, antigen, and inhibitor were placed in the barrel of a 5-ml syringe (total volume not more than 1 mL). The mixture was sonicated at an amplitude less than 40% (30-35%) for two separated 15 s periods. The emulsion should seem to be hard and not liquid at this point. A drop of emulsion placed on the surface of water should not melt. The resulting emulsion was pushed through the needle into a 1 ml syringe with a needle (Gr.18, 26G×1″), and air bubbles were removed. Mice were co-immunized with 50 μg protein and 210 nM compound antagonist in final 100 μl emulsion into the tail base. Antigen+Compound and CFA are mixed 1:1 vol/vol. The best results are obtained using DR 4 mice immunised with HEL and DR 14 mice immunized with OVA.
(§8) Mice were injected at the tail-base as follows: Holding the tail of a mouse with thumb and middle finger, the index finger was placed under the base of the mouse's tail. The needle of the syringe was inserted about 1.5 cm from the tail base (hairy end) under the skin and pushed about 1 cm into the tail. 100 μl emulsion was injected into the mouse. After 9 days, mice were killed and lymph nodes removed.
(§9) The inhibitory effect of the candidate compounds on T-cell activation was tested using T-cells and antigen-presenting cells isolated from the lymph nodes of chimeric DR4-IE transgenic mice (Taconic, USA) previously co-immunized with hen egg lysozyme plus compound, or DR14-IE transgenic mice co-immunized with ovalbumin plus compound according to standard procedures (Adorini et al., 1988, Mueller et al., 1990; Current Protocols in Immunology, Vol. 2, 7.21; Ito et al., 1996). […]

In data set [10] the test system is T cell activation from 0401(DR4) chimeric MHCII-mice. The data set can be described thus: In vivo inhibition of T cell activation by co-immunisation, DR4 mice immunised with HEL. Also noted: species or system mouse; % Reduction of response to PPD(HEL): concentration or dose not given beside the values.
Excerpt: as §5, §6, §7, §8, §9

By IC50 is commonly meant the concentration that inhibits the measured activity by half. Take `CSCC[C@H](NC(=O)[C@@H]1Cc2ccccc2CN1C(=O)[C@H](CCCNC(=N)N)NC(=O)[C@H](CC1CCCCC1)NC(C)=O)C(=O)N1CC[C@H](c2ccccc2)[C@H]1C(=O)N[C@@H](CO)c1nc(C(=O)N(C)C)c(C(C)C)o1` [Compound P33, Ac-Cha-Arg-Tic-Met-βPhPro-[S(oxaz)L]-NMe2] (Ac-[Cha]R[Tic]M[Pro(3R-Ph)][X1]-NMe2): the IC50 was determined as 3.2 µM in [1]; 4.6 µM in data set [3]; 32 µM in data set [4]; 0.3 µM in data set [5]; 220 nM in [6]; 40 µM in data set [7]. The molecule also registered an IC50 in [8] of 190 nM. In addition, in data set [2], the “Stability (Arbitrary units) Cath B 4 h” value was 97 Arbitrary units and 98 Arbitrary units. For the same molecule, the “Stability (Arbitrary units) Cath L 4 h” value on Cathepsin L is 107 Arbitrary units.

For “Ac-Cha-Gpg-Disc-Nle-βPhPro-[S(oxaz)L]-NMe2 [Compound P61-1]”, the “% Reduction of response to OVA” value in [9] (DR14 mice co-immunised with OVA plus compound, mean % inhibition from the control over 3 concentrations of antigen (6.7, 20 and 60 ug)) is 3.7%. Also, in data set [9] (specificity control: response to PPD in the same cell pool, OVA co-immunised mice), the “% Reduction of response to PPD(OVA)” value amounted to 29.9%. In addition, the “% Reduction of response to HEL” value in [10] (DR4 mice co-immunised with HEL plus compound, mean % inhibition from the control over 3 concentrations of antigen (6.7, 20 and 60 ug)) is recorded as 37.9%. For the same molecule, in data set [10] (specificity control: response to PPD in the same cell pool, HEL co-immunised mice), the “% Reduction of response to PPD(HEL)” value is recorded as 32.3%.
